Data taken from the supplement of paper PMC4862054.
Values joined by “and” are separate entries in the source; they are usually repeats but may differ in a detail not shown here. Equal entries are not always repeated.

The compounds below were run on MFM-223 (assay: normalised viability (% of control), CellTiter-Blue; higher = more viable cells (about 100 = DMSO control)). Settings: 1 nM; incubation time: 72 h.
Procedure, shortened: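 Breast cancer cell lines in 20 µl suspension were seeded onto 384-well plates pre-loaded with compound dissolved in 5 µl medium, then incubated 72 h. CellTiter-Blue reagent (2.5 µl) was added for 2 h at 37 °C and fluorescence read at 560/590 nm. Each plate was normalised to vehicle (100) and a positive kill control (0), with Z'-factor quality control. The value is normalised viability at one listed concentration of the series.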

Row | Structure (SMILES) | normalised viability [%]
1 | O=C(/C=C/c1cccnc1)NCCCCC1CCN(C(=O)c2ccccc2)CC1 [FK-866] | 108
2 | CC[C@@H]1C(=O)N(C)c2cnc(Nc3ccc(C(=O)NC4CCN(C)CC4)cc3OC)nc2N1C1CCCC1 [BI 2536] | 87.2

Same assay, conditions: 10 nM; incubation time: 72 h

Row | Structure (SMILES) | normalised viability
3 | Nc1ncn([C@H]2C[C@H](O)[C@@H](CO)O2)c(=O)n1 [Decitabine] | 80.2% and 104%
4 | CCN(CC)CCCC(C)Nc1c2ccc(Cl)cc2nc2ccc(OC)cc12 (stereo unspecified) [Mepacrine] | 101%
5 | Nc1nc2[nH]cc(CCc3ccc(C(=O)N[C@@H](CCC(=O)O)C(=O)O)cc3)c2c(=O)[nH]1 [Pemetrexed] | 96.2%
6 | COc1cc([C@@H]2c3cc4c(cc3[C@@H](O[C@@H]3O[C@@H]5CO[C@@H](c6cccs6)O[C@H]5[C@H](O)[C@H]3O)[C@H]3COC(=O)[C@H]23)OCO4)cc(OC)c1O [Teniposide] | 99.3%
7 | COc1cc2nccc(Oc3ccc(NC(=O)Nc4cc(C)on4)c(Cl)c3)c2cc1OC [Tivozanib] | 93.6%
8 | O=C(Cc1ccc(-c2ccc(OCCN3CCOCC3)cc2)cn1)NCc1ccccc1 [KX2-391] | 91.2%
9 | Nc1ccccc1NC(=O)c1ccc(CNC(=O)OCc2cccnc2)cc1 [Entinostat] | 110%
10 | C=CC(=O)Nc1cc2c(Nc3ccc(F)c(Cl)c3)ncnc2cc1OCCCN1CCOCC1 [Canertinib] | 94.8%
11 | CC[C@H](Nc1ncnc2[nH]cnc12)c1nc2cccc(F)c2c(=O)n1-c1ccccc1 [CAL-101] | 90.3%

Same assay, conditions: 25 nM; incubation time: 72 h

Row | Structure (SMILES) | normalised viability [%]
12 | CC(=O)Nc1cccc(-n2c(=O)n(C3CC3)c(=O)c3c(Nc4ccc(I)cc4F)n(C)c(=O)c(C)c32)c1 | 84.5

Same assay, conditions: 99 nM; incubation time: 72 h

Row | Structure (SMILES) | normalised viability [%]
13 | CCN(CC)CCCC(C)Nc1c2ccc(Cl)cc2nc2ccc(OC)cc12 (stereo unspecified) [Mepacrine] | 94.8

Same assay, conditions: 100 nM; incubation time: 72 h

Row | Structure (SMILES) | normalised viability [%]
14 | O=C(/C=C/c1cccnc1)NCCCCC1CCN(C(=O)c2ccccc2)CC1 [FK-866] | 21.2
15 | CC[C@@H]1C(=O)N(C)c2cnc(Nc3ccc(C(=O)NC4CCN(C)CC4)cc3OC)nc2N1C1CCCC1 [BI 2536] | 48.6

Same assay, conditions: 250 nM; incubation time: 72 h

Row | Structure (SMILES) | normalised viability [%]
16 | CC(=O)Nc1cccc(-n2c(=O)n(C3CC3)c(=O)c3c(Nc4ccc(I)cc4F)n(C)c(=O)c(C)c32)c1 | 64.4

Same assay, conditions: 990 nM; incubation time: 72 h

Row | Structure (SMILES) | normalised viability [%]
17 | CCN(CC)CCCC(C)Nc1c2ccc(Cl)cc2nc2ccc(OC)cc12 (stereo unspecified) [Mepacrine] | 44.5

Same assay, conditions: 1000 nM; incubation time: 72 h

Row | Structure (SMILES) | normalised viability
18 | Nc1ncn([C@H]2C[C@H](O)[C@@H](CO)O2)c(=O)n1 [Decitabine] | 84.7% and 102%
19 | O=C(/C=C/c1cccnc1)NCCCCC1CCN(C(=O)c2ccccc2)CC1 [FK-866] | 20.1%
20 | CC[C@@H]1C(=O)N(C)c2cnc(Nc3ccc(C(=O)NC4CCN(C)CC4)cc3OC)nc2N1C1CCCC1 [BI 2536] | 48.5%
21 | CCN(CC)CCCC(C)Nc1c2ccc(Cl)cc2nc2ccc(OC)cc12 (stereo unspecified) [Mepacrine] | 100%
22 | Nc1nc2[nH]cc(CCc3ccc(C(=O)N[C@@H](CCC(=O)O)C(=O)O)cc3)c2c(=O)[nH]1 [Pemetrexed] | 101%
23 | COc1cc([C@@H]2c3cc4c(cc3[C@@H](O[C@@H]3O[C@@H]5CO[C@@H](c6cccs6)O[C@H]5[C@H](O)[C@H]3O)[C@H]3COC(=O)[C@H]23)OCO4)cc(OC)c1O [Teniposide] | 84.4%
24 | COc1cc2nccc(Oc3ccc(NC(=O)Nc4cc(C)on4)c(Cl)c3)c2cc1OC [Tivozanib] | 55.3%
25 | O=C(Cc1ccc(-c2ccc(OCCN3CCOCC3)cc2)cn1)NCc1ccccc1 [KX2-391] | 40.7%
26 | Nc1ccccc1NC(=O)c1ccc(CNC(=O)OCc2cccnc2)cc1 [Entinostat] | 93.6%
